Our source for the EC50 and IC50 values is patent publication US20130203659A1 (priority 2006, published 2013).

Molecules are shown by their SMILES.

The target of one assay is T1, mouse GLP-1 receptor (Mus musculus, UniProt O35659).
T1 construct: expressed in transfected cells; host or cells: CHOK1 cells with a cAMP-regulated luciferase reporter construct
T1 sequence (O35659 22-463): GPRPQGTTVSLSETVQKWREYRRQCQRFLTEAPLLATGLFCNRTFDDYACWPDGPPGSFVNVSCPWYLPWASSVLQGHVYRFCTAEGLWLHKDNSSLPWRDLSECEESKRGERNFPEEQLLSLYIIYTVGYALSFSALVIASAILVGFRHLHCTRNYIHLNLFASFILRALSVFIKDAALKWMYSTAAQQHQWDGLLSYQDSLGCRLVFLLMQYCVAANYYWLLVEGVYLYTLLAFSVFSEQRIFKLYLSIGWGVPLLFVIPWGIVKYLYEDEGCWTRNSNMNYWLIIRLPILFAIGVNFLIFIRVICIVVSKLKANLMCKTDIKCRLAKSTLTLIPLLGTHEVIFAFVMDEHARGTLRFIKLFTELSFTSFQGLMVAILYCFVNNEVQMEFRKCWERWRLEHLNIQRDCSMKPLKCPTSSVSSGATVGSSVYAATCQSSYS
Description: GLP-1R reporter assay (cAMP-regulated luciferase, CHOK1 cells), mouse receptor. The format is cell-based. The conditions noted are these: 6 hours exposure. The method, then: (§1) A. GLP-1R Reporter Assay:
(§2) Increased cAMP levels were measured through enhanced expression of a luciferase reporter gene. […] The evening prior to assay, the cells were washed, the medium replaced with serum-free medium containing 0.5% protease-free bovine serum albumin (BSA), and then cultured overnight. […] Cell lysates were assayed for luciferase activity using the Luciferase Assay System (Promega Corporation, Madison, Wis.). Luciferase activity was measured using a Luminoskan Ascent (Thermo Electron Corporation, Marietta, Ohio). Nonlinear regression analyses of resultant compound concentration curves were performed using GraphPad Prism (GraphPad Software, Inc., San Diego, Calif.).
(In a reporter assay the amount or activity of a reporter protein is the signal.)

Assay [1] addresses T2, human GLP-1 receptor (Homo sapiens, UniProt P43220).
T2 construct: expressed in transfected cells; host or cells: CHOK1 cells with a cAMP-regulated luciferase reporter construct
Description: GLP-1R reporter assay (cAMP-regulated luciferase, CHOK1 cells), human receptor. The format is cell-based. The conditions noted are these: luciferase reporter, 6 hours exposure; read-out: EC50 human. How it is done:
as §1, §2

Assay [2] concerns the target T2, human GLP-1 receptor. Put plainly: In vitro GLP-1 receptor binding (125I-GLP-1 ligand binding assay), human receptor. How it is done:
Cells were sedimented at 1500 rpm for 10 minutes. The resulting pellets were homogenized in 15 mls of ice cold sucrose buffer (25 mM Tris-HCl, 0.32 M Sucrose, 0.25 g/L sodium azide, pH 7.4) with a motorized, glass fitted, Teflon homogenizer. The homogenate was centrifuged at 48,000×g at 4° C. for 10 minutes, resuspended in 25 ml assay buffer (50 mM Tris-HCl, 5 mM MgCl2, 10 mg/ml protease-free BSA, 0.1 mg/ml STI, and 0.1 mg/ml Pefabloc, pH 7.4) with a Tissue-Tearor (Biospec Products), then centrifuged again at 48,000×g for 10 minutes. The pellets were homogenized for a third time in 15 ml assay buffer using the Tissue-Tearor and again centrifuged at 48,000×g for 10 minutes. The resulting pellet was resuspended in assay buffer at a wet weight concentration of 4 mg/ml.
Binding assays were performed in 96-well U-bottom plates. […] Bound radioactivity was determined using a TopCount microplate scintillation and luminescence counter (Packard Instrument Company, PerkinElmer, Shelton, Conn.). Nonlinear regression analyses of resulting concentration curves were performed using GraphPad Prism (GraphPad Software, Inc., San Diego, Calif.).

T2 sequence (P43220 24-463): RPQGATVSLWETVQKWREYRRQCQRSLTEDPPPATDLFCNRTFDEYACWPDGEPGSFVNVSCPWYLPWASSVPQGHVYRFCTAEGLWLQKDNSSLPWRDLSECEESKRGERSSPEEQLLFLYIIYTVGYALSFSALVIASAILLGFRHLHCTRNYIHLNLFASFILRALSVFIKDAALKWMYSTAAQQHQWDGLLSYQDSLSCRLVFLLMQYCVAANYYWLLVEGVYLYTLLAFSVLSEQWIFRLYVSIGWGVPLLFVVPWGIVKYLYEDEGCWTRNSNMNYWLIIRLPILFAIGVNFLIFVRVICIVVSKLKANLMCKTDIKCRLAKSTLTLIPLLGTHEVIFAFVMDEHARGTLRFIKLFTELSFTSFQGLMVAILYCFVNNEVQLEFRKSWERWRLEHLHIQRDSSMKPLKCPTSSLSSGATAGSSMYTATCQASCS

As for `CC[C@H](C)[C@H](NC(=O)[C@H](Cc1ccccc1)NC(=O)[C@H](CCC(=O)O)NC(=O)[C@H](CCCCN)NC(=O)[C@H](C)NC(=O)[C@H](C)NC(=O)[C@H](CCC(N)=O)NC(=O)CNC(=O)[C@H](CCC(=O)O)NC(=O)[C@H](CC(C)C)NC(=O)[C@H](Cc1ccc(O)cc1)NC(=O)[C@H](CO)NC(=O)[C@H](CO)NC(=O)[C@@H](NC(=O)[C@H](CC(=O)O)NC(=O)[C@H](CO)NC(=O)[C@@H](NC(=O)[C@H](Cc1ccccc1)NC(=O)[C@@H](NC(=O)CNC(=O)[C@H](CCC(=O)O)NC(=O)[C@H](C)NC(=O)[C@H](Cc1c[nH]cn1)NC(=O)[C@@H](N)CO)[C@@H](C)O)[C@@H](C)O)C(C)C)C(=O)N[C@@H](C)C(=O)N[C@@H](Cc1c[nH]c2ccccc12)C(=O)N[C@@H](CC(C)C)C(=O)N[C@H](C(=O)N[C@@H](CCCCN)C(=O)NCC(=O)N[C@@H](CCCNC(=N)N)C(=O)O)C(C)C` [S-GLP-1, S HAEGTFTSDVSSYLEGQAAKEFIAWLVKGR], the EC50 at mouse GLP-1 receptor stood at 2 nM; at human GLP-1 receptor [1], 0.4 nM. The compound further showed a concentration for half-maximal inhibition (IC50) on human GLP-1 receptor [2] of 53 nM.
As to `CC[C@H](C)[C@H](NC(=O)[C@H](Cc1ccccc1)NC(=O)[C@H](CCC(=O)O)NC(=O)[C@H](CCCCN)NC(=O)[C@H](C)NC(=O)[C@H](C)NC(=O)[C@H](CCC(N)=O)NC(=O)CNC(=O)[C@H](CCC(=O)O)NC(=O)[C@H](CC(C)C)NC(=O)[C@H](Cc1ccc(O)cc1)NC(=O)[C@H](CO)NC(=O)[C@H](CO)NC(=O)[C@@H](NC(=O)[C@H](CC(=O)O)NC(=O)[C@H](CO)NC(=O)[C@@H](NC(=O)[C@H](Cc1ccccc1)NC(=O)[C@@H](NC(=O)CNC(=O)[C@H](CCC(=O)O)NC(=O)[C@H](C)NC(=O)[C@H](Cc1c[nH]cn1)NC(=O)[C@H](Cc1c[nH]cn1)NC(=O)[C@H](Cc1c[nH]cn1)NC(=O)[C@@H](N)CCSC)[C@@H](C)O)[C@@H](C)O)C(C)C)C(=O)N[C@@H](C)C(=O)N[C@@H](Cc1c[nH]c2ccccc12)C(=O)N[C@@H](CC(C)C)C(=O)N[C@H](C(=O)N[C@@H](CCCCN)C(=O)NCC(=O)N[C@@H](CCCNC(=N)N)C(=O)O)C(C)C` [MHH-GLP1, MHH HAEGTFTSDVSSYLEGQAAKEFIAWLVKGR], the EC50 came out at 5 nM at mouse GLP-1 receptor and 1 nM at human GLP-1 receptor [1]. For the same compound, the half-maximal inhibitory concentration (IC50) on human GLP-1 receptor [2] is 350 nM.
For `CC[C@H](C)[C@H](NC(=O)[C@H](Cc1ccccc1)NC(=O)[C@H](CCC(=O)O)NC(=O)[C@H](CCCCN)NC(=O)[C@H](C)NC(=O)[C@H](C)NC(=O)[C@H](CCC(N)=O)NC(=O)CNC(=O)[C@H](CCC(=O)O)NC(=O)[C@H](CC(C)C)NC(=O)[C@H](Cc1ccc(O)cc1)NC(=O)[C@H](CO)NC(=O)[C@H](CO)NC(=O)[C@@H](NC(=O)[C@H](CC(=O)O)NC(=O)[C@H](CO)NC(=O)[C@@H](NC(=O)[C@H](Cc1ccccc1)NC(=O)[C@@H](NC(=O)CNC(=O)[C@H](CCC(=O)O)NC(=O)[C@H](C)NC(=O)[C@H](Cc1c[nH]cn1)NC(=O)[C@H](C)N)[C@@H](C)O)[C@@H](C)O)C(C)C)C(=O)N[C@@H](C)C(=O)N[C@@H](Cc1c[nH]c2ccccc12)C(=O)N[C@@H](CC(C)C)C(=O)N[C@H](C(=O)N[C@@H](CCCCN)C(=O)NCC(=O)N[C@@H](CCCNC(=N)N)C(=O)O)C(C)C` [A-GLP-1, A HAEGTFTSDVSSYLEGQAAKEFIAWLVKGR] the same measures were 0.8 nM, 0.2 nM and 38 nM.

In general, EC50 refers to the concentration needed to bring the measured effect to its halfway point. Usually IC50 stands for the concentration at which inhibition is half-maximal. The low end stands for inhibition by little substance, the high end for a need for much substance.
